Results reported in PubChem BioAssay (NCI).
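Step 1: Grow cells in 96-well plates. Step 2: Expose to compound for 48 hours at 5 concentrations. Step 3: Interpolate endpoints linearly; if unreached, use highest concentration. Definition used: TGI = concentration required for complete inhibition of growth.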

What was measured:
Experiment in all cases: DTP human tumour cell line panel, 48 h
[1] = test system: A549 NSCLC
[2] = test system: SK-MEL-5 melanoma
[3] = test system: EKVX NSCLC
[4] = test system: SK-OV-3 ovarian
[5] = test system: UACC-257 melanoma
[6] = test system: NCI-H460 lung
[7] = test system: HT29 colon
[8] = test system: HOP-92 NSCLC
[9] = test system: KM12 colon
[10] = test system: 786-0 renal
[11] = test system: K-562 leukemia
[12] = test system: IGROV1 ovarian
[13] = test system: NCI-H23 lung
[14] = test system: BT-549 breast
[15] = test system: SNB-75 CNS
[16] = test system: NCI-H226 lung

Structure (SMILES) | TGI [1] [µM] | TGI [2] [µM] | TGI [3] [µM] | TGI [4] [µM] | TGI [5] [µM] | TGI [6] [µM] | TGI [7] [µM] | TGI [8] [µM] | TGI [9] [µM] | TGI [10] [µM] | TGI [11] [µM] | TGI [12] [µM] | TGI [13] [µM] | TGI [14] [µM] | TGI [15] [µM] | TGI [16] [µM]
Cc1c(C)c2ccc(OCC(O)COC(C)C)c(C)c2oc1=O (configuration not stated) | > 100 | 30.2 | > 100 | > 100 | 43.4 | 34.6 | > 100 | > 100 | > 100 | > 10 | 71.4 | > 100 | > 100 | – | – | –
C=CC(=O)Nc1ccc(NC(=O)C=C)c2c1C(=O)c1ccccc1C2=O | > 100 | > 100 | > 100 | – | > 100 | > 100 | > 100 | – | 29.1 | 84.6 | 48.4 | > 100 | > 100 | > 100 | – | –
CCn1cc2c(=O)n3ncn(-c4ccc(Br)cc4)c3nc2n1 | > 100 | > 100 | > 100 | > 100 | > 100 | – | > 100 | – | > 100 | > 100 | > 100 | > 100 | > 100 | > 100 | 45.8 | > 100
OC12c3ccccc3C1CCCCC2N1CCCC1 (configuration not stated) | > 100 | > 100 | > 100 | > 100 | > 100 | > 100 | > 100 | – | > 100 | > 100 | – | – | > 100 | – | > 100 | > 100
CC1=NN(c2cccc(Cl)c2)C2(SCC(=O)N2c2nc3ccccc3s2)C1=CC=Cc1ccccc1 (configuration not stated) | – | 47 | > 100 | 68.5 | > 100 | > 100 | > 100 | 45.5 | > 100 | > 100 | > 100 | > 100 | 91.1 | – | – | > 100
COc1ccc(CNc2cnc3cc(N)ccc3n2)cc1 | > 100 | > 100 | > 100 | – | – | > 100 | > 100 | – | > 100 | > 100 | > 100 | > 100 | > 100 | – | > 100 | > 100
CSc1ncnc2c1ncn2CCC(=O)O | > 100 | > 100 | > 100 | > 100 | > 100 | > 100 | > 100 | > 100 | > 100 | > 100 | > 100 | > 100 | > 100 | – | > 100 | > 100
Cc1ccc(O)c(C(c2cccc(C(c3cc(C)ccc3O)c3cc(C)ccc3O)c2)c2cc(C)ccc2O)c1 | 4 | 3.93 | 3.63 | 3.42 | 3.86 | – | 3.16 | – | 3.23 | 3.18 | 3.37 | 3.02 | 3.18 | 4.11 | 3.54 | 3.31
COc1cc(/C=C2\C(=O)N(C(=O)Cc3ccccc3)N=C2C)cc(OC)c1OC | > 100 | > 100 | > 100 | – | > 100 | > 100 | > 100 | – | > 100 | > 100 | > 100 | – | > 100 | – | > 100 | > 100
COC(=O)CCC(=O)c1ccc2c(c1)CCC2 | > 100 | > 100 | > 100 | > 100 | > 100 | > 100 | > 100 | > 100 | – | > 100 | > 100 | > 100 | > 100 | – | > 100 | –
CC(C)(O)C(O)COc1c2c(cc3oc(=O)ccc13)OCO2 (configuration not stated) | > 100 | > 100 | > 100 | > 100 | > 100 | > 100 | > 100 | > 100 | > 100 | > 100 | > 100 | > 100 | > 100 | – | > 100 | > 100
c1csc(-c2nn3c(C45CC6CC(CC(C6)C4)C5)nnc3s2)c1 | > 100 | > 100 | > 100 | > 100 | > 100 | > 100 | > 100 | > 100 | – | > 100 | > 100 | > 100 | > 100 | – | > 100 | > 100
COc1cccc2c1c1ccc3c(c1n2C)C(=O)C=CC3=O | > 100 | > 100 | – | > 100 | 30.3 | > 100 | 12.6 | 25.9 | > 100 | 31.4 | > 100 | > 100 | 32.2 | – | – | > 100
